Data: patent publication US7531554B2, “4-oxoquinoline compound and use thereof as HIV integrase inhibitor” (Japan Tobacco Inc., priority 2004, dated 2009)
Counter-ions that a name gives are not always drawn.

Biological target: T1, HIV integrase (Human immunodeficiency virus type 1 group M subtype B, UniProt P12497, F1332H)
T1 construct: HIV integrase full length gene (J. Virol., 67, 425-437 (1993)) in which phenylalanine at codon 185 was substituted by histidine; made in house; host or cells: Escherichia coli BL21(DE3)
Assay: Determination of enzyme (HIV integrase) inhibitory activity
Format: biochemical
Settings: recombinant integrase protein (F185H), donor DNA/target DNA, absorbance at 450 nm
Summary of the method: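 Full-length HIV integrase bearing F185H mutation, E. coli-expressed and purified, preincubated with compound on plate-bound biotinylated donor DNA for 60 min at 37 °C; digoxigenin-labelled target DNA then added for 10 min. Strand transfer detected by peroxidase anti-digoxigenin ELISA at 450 nm; IC50 from inhibition versus no-compound and no-enzyme controls.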

Row | SMILES | IC50
1 | COc1cc2c(cc1Cc1cccc(Cl)c1Cl)c(=O)c(C(=O)O)cn2[C@H](CO)C(C)C [Example 7-2, 6-(2,3-dichlorobenzyl)-1-((1S)-1-(hydroxymethyl)-2-methylpropyl)-7-methoxy-4-oxo-1,4-dihydroquinoline-3-carboxylic acid] | 4.5 nM
2 | CC(C)[C@@H](CO)n1cc(C(=O)O)c(=O)c2cc(Cc3cccc(Cl)c3F)c(OCCCCN)cc21 [Example 4-34, 7-(4-aminobutoxy)-6-(3-chloro-2-fluorobenzyl)-1-((1S)-1-(hydroxymethyl)-2-methylpropyl)-4-oxo-1,4-dihydroquinoline-3-carboxylic acid hydrochloride] | 3.9 nM
3 | COCCOc1cc2c(cc1Cc1cccc(Cl)c1F)c(=O)c(C(=O)O)cn2[C@H](CO)C(C)C [Example 4-1, 6-(3-chloro-2-fluorobenzyl)-1-((1S)-1-(hydroxymethyl)-2-methylpropyl)-7-(2-methoxyethoxy)-4-oxo-1,4-dihydroquinoline-3-carboxylic acid] | 4.4 nM
4 | CCc1cc2c(cc1Cc1cccc(Cl)c1F)c(=O)c(C(=O)O)cn2[C@H](CO)C(C)C [Example 4-4, 6-(3-chloro-2-fluorobenzyl)-7-ethyl-1-((1S)-1-(hydroxymethyl)-2-methylpropyl)-4-oxo-1,4-dihydroquinoline-3-carboxylic acid] | 4.7 nM
5 | CC(C)[C@@H](CO)n1cc(C(=O)O)c(=O)c2cc(Cc3cccc(Cl)c3F)c(N3CCN[C@@H](C)C3)cc21 [Example 4-30, 6-(3-chloro-2-fluorobenzyl)-1-((1S)-1-(hydroxymethyl)-2-methylpropyl)-7-((3S)-3-methylpiperazin-1-yl)-4-oxo-1,4-dihydroquinoline-3-carboxylic acid] | 6.1 nM
6 | COc1cc2c(cc1Cc1cccc(Cl)c1F)c(=O)c(C(=O)O)cn2[C@H](CO)C1CCOCC1 [Example 2-1, 6-(3-chloro-2-fluorobenzyl)-1-((1S)-2-hydroxy-1-(tetrahydropyran-4-yl)ethyl)-7-methoxy-4-oxo-1,4-dihydroquinoline-3-carboxylic acid] | 4.6 nM
7 | COc1cc2c(cc1Cc1cccc(Cl)c1F)c(=O)c(C(=O)O)cn2[C@H](CO)[C@@H](C)OC [Example 2-11, 6-(3-chloro-2-fluorobenzyl)-1-((1R,2R)-1-(hydroxymethyl)-2-methoxypropyl)-7-methoxy-4-oxo-1,4-dihydroquinoline-3-carboxylic acid] | 5 nM
8 | CC(C)[C@@H](CO)n1cc(C(=O)O)c(=O)c2cc(Cc3cccc(Cl)c3F)c(OCCN(C)C)cc21 [Example 4-2, 6-(3-chloro-2-fluorobenzyl)-7-(2-(dimethylamino)ethoxy)-1-((1S)-1-(hydroxymethyl)-2-methylpropyl)-4-oxo-1,4-dihydroquinoline-3-carboxylic acid] | 6 nM
9 | COc1cc2c(cc1Cc1ccc(O)c(Cl)c1F)c(=O)c(C(=O)O)cn2[C@H](CO)C(C)C [Example 1-4, 6-(3-chloro-2-fluoro-4-hydroxybenzyl)-1-((1S)-1-(hydroxymethyl)-2-methylpropyl)-7-methoxy-4-oxo-1,4-dihydroquinoline-3-carboxylic acid] | 25 nM
10 | CC(C)[C@@H](CO)n1cc(C(=O)O)c(=O)c2cc(Cc3cccc(Cl)c3F)cc(O)c21 [Example 3-5, 6-(3-chloro-2-fluorobenzyl)-8-hydroxy-1-((1S)-1-(hydroxymethyl)-2-methylpropyl)-4-oxo-1,4-dihydroquinoline-3-carboxylic acid] | 4 nM
11 | CC(C)[C@@H](CO)n1cc(C(=O)O)c(=O)c2cc(Cc3cccc(Cl)c3F)c(OCCNS(C)(=O)=O)cc21 [Example 4-49, 6-(3-chloro-2-fluorobenzyl)-1-((1S)-1-(hydroxymethyl)-2-methylpropyl)-7-(2-(mesylamino)ethoxy)-4-oxo-1,4-dihydroquinoline-3-carboxylic acid] | 5.1 nM
12 | CC(C)[C@@H](CO)n1cc(C(=O)O)c(=O)c2cc(Cc3cccc(Cl)c3F)c(O[C@@H]3CCNC3)cc21 [Example 4-37, 6-(3-chloro-2-fluorobenzyl)-1-((1S)-1-(hydroxymethyl)-2-methylpropyl)-4-oxo-7-((3R)-pyrrolidin-3-yloxy)-1,4-dihydroquinoline-3-carboxylic acid hydrochloride] | 4.4 nM
13 | CC(C)([C@@H](CO)n1cc(C(=O)O)c(=O)c2cc(Cc3cccc(Cl)c3F)ccc21)S(C)(=O)=O [Example 2-10, 6-(3-chloro-2-fluorobenzyl)-1-((1R)-1-(hydroxymethyl)-2-mesyl-2-methylpropyl)-4-oxo-1,4-dihydroquinoline-3-carboxylic acid] | 4.2 nM
14 | CC(C)[C@@H](CO)n1cc(C(=O)O)c(=O)c2cc(Cc3cccc(Cl)c3F)c(OCc3ccc(C(=O)O)cc3)cc21 [Example 4-57, 7-(4-carboxybenzyloxy)-6-(3-chloro-2-fluorobenzyl)-1-((1S)-1-(hydroxymethyl)-2-methylpropyl)-4-oxo-1,4-dihydroquinoline-3-carboxylic acid] | 3.8 nM
15 | CC(C)[C@@H](CO)n1cc(C(=O)O)c(=O)c2cc(Cc3cccc(Cl)c3F)c(OCc3ccc(C#N)cc3)cc21 [Example 4-56, 6-(3-chloro-2-fluorobenzyl)-7-(4-cyanobenzyloxy)-1-((1S)-1-(hydroxymethyl)-2-methylpropyl)-4-oxo-1,4-dihydroquinoline-3-carboxylic acid] | 5 nM
16 | CC(C)[C@@H](CO)n1cc(C(=O)O)c(=O)c2cc(Cc3cccc(Cl)c3F)c(OCCN3CCN(C)CC3)cc21 [Example 4-51, 6-(3-chloro-2-fluorobenzyl)-1-((1S)-1-(hydroxymethyl)-2-methylpropyl)-7-(2-(4-methylpiperazin-1-yl)ethoxy)-4-oxo-1,4-dihydroquinoline-3-carboxylic acid ditrifluoroacetate] | 6 nM
17 | COc1cc2c(cc1C(O)c1cccc(Cl)c1F)c(=O)c(C(=O)O)cn2[C@H](CO)C(C)C (single isomer, unassigned) [Example 7-8] | 39 nM
18 | CC(C)[C@@H](CO)n1cc(C(=O)O)c(=O)c2cc(Cc3cccc(Cl)c3F)c3c(c21)OCCO3 [Example 6-1, 10-(3-chloro-2-fluorobenzyl)-5-((1S)-1-hydroxymethyl-2-methylpropyl)-8-oxo-2,3,5,8-tetrahydro-1,4-dioxa-5-aza-phenanthrene-7-carboxylic acid] | 5.9 nM
19 | COc1cc2c(cc1Cc1cc(O)cc(Cl)c1F)c(=O)c(C(=O)O)cn2[C@H](CO)C(C)C [Example 1-6, 6-(3-chloro-2-fluoro-5-hydroxybenzyl)-1-((1S)-1-(hydroxymethyl)-2-methylpropyl)-7-methoxy-4-oxo-1,4-dihydroquinoline-3-carboxylic acid] | 4.6 nM
20 | COc1cc2c(cc1Cc1cccc(Cl)c1F)c(=O)c(C(=O)O)cn2C(CO)C1CCNCC1 (stereo not shown) [Example 2-2, 6-(3-chloro-2-fluorobenzyl)-1-(2-hydroxy-1-(piperidin-4-yl)ethyl)-7-methoxy-4-oxo-1,4-dihydroquinoline-3-carboxylic acid hydrochloride] | 12 nM
21 | COc1cc2c(cc1Cc1c(F)cccc1Cl)c(=O)c(C(=O)O)cn2[C@H](CO)C(C)C [Example 7-1, 6-(2-chloro-6-fluorobenzyl)-1-((1S)-1-(hydroxymethyl)-2-methylpropyl)-7-methoxy-4-oxo-1,4-dihydroquinoline-3-carboxylic acid] | 17 nM
22 | COc1cc2c(cc1Cc1c(F)ccc(Cl)c1F)c(=O)c(C(=O)O)cn2[C@H](CO)C(C)C [Example 1-2, 6-(3-chloro-2,6-difluorobenzyl)-1-((1S)-1-(hydroxymethyl)-2-methylpropyl)-7-methoxy-4-oxo-1,4-dihydroquinoline-3-carboxylic acid] | 3.8 nM
23 | CC(C)[C@@H](CO)n1cc(C(=O)O)c(=O)c2cc(Cc3cccc(Cl)c3F)c(OCc3ccccc3)cc21 [Example 4-43, 7-benzyloxy-6-(3-chloro-2-fluorobenzyl)-1-((1S)-1-(hydroxymethyl)-2-methylpropyl)-4-oxo-1,4-dihydroquinoline-3-carboxylic acid] | 6.4 nM
24 | CC(C)[C@@H](CO)n1cc(C(=O)O)c(=O)c2cc(Cc3cccc(Cl)c3F)c(OCc3ccc(C(N)=O)cc3)cc21 [Example 4-58, 7-(4-(aminocarbonyl)benzyloxy)-6-(3-chloro-2-fluorobenzyl)-1-((1S)-1-(hydroxymethyl)-2-methylpropyl)-4-oxo-1,4-dihydroquinoline-3-carboxylic acid] | 4.7 nM
25 | CC(C)[C@@H](CO)n1cc(C(=O)O)c(=O)c2cc(Cc3cccc(Cl)c3F)c(OCCN3CCCCC3)cc21 [Example 4-13, 6-(3-chloro-2-fluorobenzyl)-1-((1S)-1-(hydroxymethyl)-2-methylpropyl)-4-oxo-7-(2-(piperidin-1-yl)ethoxy)-1,4-dihydroquinoline-3-carboxylic acid] | 6.3 nM
26 | CC(C)[C@@H](CO)n1cc(C(=O)O)c(=O)c2cc(Cc3cccc(Cl)c3F)c(OCC(F)(F)F)cc21 [Example 4-62, 6-(3-chloro-2-fluorobenzyl)-1-((1S)-1-(hydroxymethyl)-2-methylpropyl)-4-oxo-7-(2,2,2-trifluoroethyloxy)-1,4-dihydroquinoline-3-carboxylic acid] | 5.5 nM
27 | CC(C)[C@@H](CO)n1cc(C(=O)O)c(=O)c2cc(Cc3cccc(Cl)c3F)c(OCS(N)(=O)=O)cc21 [Example 4-52, 7-((aminosulfonyl)methoxy)-6-(3-chloro-2-fluorobenzyl)-1-((1S)-1-(hydroxymethyl)-2-methylpropyl)-4-oxo-1,4-dihydroquinoline-3-carboxylic acid] | 6.6 nM
28 | COC[C@@H](CO)n1cc(C(=O)O)c(=O)c2cc(Cc3cccc(Cl)c3F)ccc21 [Example 2-14, 6-(3-chloro-2-fluorobenzyl)-1-((1R)-1-(hydroxymethyl)-2-methoxyethyl)-4-oxo-1,4-dihydroquinoline-3-carboxylic acid] | 13 nM
